From article PMC11374953, “Heteroaryl derivatives of suvorexant as OX1R selective PET ligand candidates: Cu-mediated ^18F-fluorination of boroxines, in vitro and initial in vivo evaluation” (EJNMMI Research, 2024)
Several values for one entry are separate records, joined by “and”; a condition that tells them apart may be missing. Equal entries are not always repeated. Entries after “also recorded” stand apart in the source; their conditions may differ.

Legend:
[1] = biological target: T1, human OX1R (Homo sapiens, UniProt O43613); test: Radioligand displacement binding, human OX1R (HEK293T membranes); conditions: for OX1R selectivity Ki(hOX2R)/Ki(hOX1R): Ki for OX2R divided by Ki for OX1R; for Ki: mean ± SEM, at least three experiments in triplicate, HEK293T membranes, radioligand [^3H]SB974042, read-out: Ki values (nM ± SEM) hOX1R
T1 construct: host or cells: HEK293T
T1 sequence (O43613 1-425): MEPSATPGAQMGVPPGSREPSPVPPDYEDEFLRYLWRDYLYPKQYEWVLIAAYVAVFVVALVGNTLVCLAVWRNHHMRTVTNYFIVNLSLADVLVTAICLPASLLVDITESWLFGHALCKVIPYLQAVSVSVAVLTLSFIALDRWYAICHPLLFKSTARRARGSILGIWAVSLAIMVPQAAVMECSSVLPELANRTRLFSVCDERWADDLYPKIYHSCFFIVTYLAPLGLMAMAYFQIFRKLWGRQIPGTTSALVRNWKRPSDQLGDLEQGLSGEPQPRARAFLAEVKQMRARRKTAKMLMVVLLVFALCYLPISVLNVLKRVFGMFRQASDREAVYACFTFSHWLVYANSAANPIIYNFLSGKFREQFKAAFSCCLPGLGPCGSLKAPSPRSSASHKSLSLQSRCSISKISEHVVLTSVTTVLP
Experimental: (§1) In comparison with the lead JH112, receptor binding affinities of the test compounds 1a–f have been determined by radioligand displacement studies, as described previously, applying membranes of HEK293T cells transiently expressing the human OX1R or OX2R (Table 1).
Binding affinities to the human orexin receptor subtypes OX1R and OX2R were determined as reported. Membranes were prepared from HEK293T cells transiently transfected with the cDNA for the receptor (OX1R: human HCRTR1 from cDNA Resource Center, Bloomsburg University, Bloomsberg, PA; OX2R: human HCRTR2 from Genscript, Piscataway, NJ). […] Competition binding experiments were conducted in binding buffer (50 mM Tris, 5 mM MgCl2, 0.1 mM EDTA, 5 µg/mL bacitracin and 5 µg/mL soybean trypsin inhibitor at pH 7.4) at final protein concentrations of 4 µg/well (OX1R) and 3 µg/well ([…]) or the OX2R radioligand [^3H]EMPA (specific activity: 84 Ci/mmol) both at a final concentration of 0.7 nM (both purchased from Novandi, Södertälje, Sweden) and varying concentrations of the competing test compounds. Radioactivity was separated by filtration on GF/B glass fiber mats and counted with a scintillation counter (Microbeta from PerkinElmer, Rodgau, Germany). […] The protein concentration was determined applying the method of Lowry. Competition curves were analyzed by nonlinear regression using the algorithms implemented in PRISM 10.2 (GraphPad Software, San Diego, CA) to get IC50 values, which were subsequently transformed into the Ki values employing the equation of Cheng and Prusoff.

[2] = biological target: T2, human OX2R (Homo sapiens, UniProt O43614); test: Radioligand displacement binding, human OX2R (HEK293T membranes); conditions: mean ± SEM, at least three experiments in triplicate; HEK293T homogenates, radioligand [^3H]EMPA; read-out: Ki values (nM ± SEM) hOX2R
T2 construct: host or cells: HEK293T
T2 sequence (O43614 1-444): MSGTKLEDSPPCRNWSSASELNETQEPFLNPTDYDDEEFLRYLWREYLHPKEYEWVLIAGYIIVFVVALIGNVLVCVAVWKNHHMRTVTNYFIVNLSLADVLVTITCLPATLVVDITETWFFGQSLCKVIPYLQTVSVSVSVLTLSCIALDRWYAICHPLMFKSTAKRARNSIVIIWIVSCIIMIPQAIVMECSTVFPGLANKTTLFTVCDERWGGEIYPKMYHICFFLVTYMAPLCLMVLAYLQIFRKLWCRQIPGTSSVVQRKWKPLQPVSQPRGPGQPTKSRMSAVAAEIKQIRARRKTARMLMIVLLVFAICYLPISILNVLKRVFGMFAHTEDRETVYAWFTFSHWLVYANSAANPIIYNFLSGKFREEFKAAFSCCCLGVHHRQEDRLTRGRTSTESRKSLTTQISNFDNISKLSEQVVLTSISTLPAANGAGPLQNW
Experimental: as §1
Binding affinities to the human orexin receptor subtypes OX1R and OX2R were determined as reported. Membranes were prepared from HEK293T cells transiently transfected with the cDNA for the receptor (OX1R: human HCRTR1 from cDNA Resource Center, Bloomsburg University, Bloomsberg, PA; OX2R: human HCRTR2 from Genscript, Piscataway, NJ). […] Competition binding experiments were conducted in binding buffer (50 mM Tris, 5 mM MgCl2, 0.1 mM EDTA, 5 µg/mL bacitracin and 5 µg/mL soybean trypsin inhibitor at pH 7.4) at final protein concentrations of 4 µg/well (OX1R) and 3 µg/well (OX2R) when incubating the OX1R specific radioligand [^3H]SB674042 (specific activity: 43 Ci/mmol) or the OX2R radioligand [^3H]EMPA (specific activity: 84 Ci/mmol) both at a final concentration of 0.7 nM (both purchased from Novandi, Södertälje, Sweden) and varying concentrations of the competing test compounds. Radioactivity was separated by filtration on GF/B glass fiber mats and counted with a scintillation counter (Microbeta from PerkinElmer, Rodgau, Germany). Non-specific binding was determined with 10 µM of SB674042 or EMPA. The protein concentration was determined applying the method of Lowry. Competition curves were analyzed by nonlinear regression using the algorithms implemented in PRISM 10.2 (GraphPad Software, San Diego, CA) to get IC50 values, which were subsequently transformed into the Ki values employing the equation of Cheng and Prusoff.

[3] = biological target: P-gp (Homo sapiens, UniProt P08183); test: Basolateral-to-apical transport in Caco-2 monolayers with and without the P-gp inhibitor zosuquidar; conditions: for effect of P-gp inhibitor zosuquidar (ZSQ) on basolateral-to-apical transport / passive permeability (transcellular passive diffusion): Caco-2 monolayers, 4 h; for effect of P-gp inhibitor zosuquidar (ZSQ) on basolateral-to-apical transport: 5 µM compound, 1 µM ZSQ, n = 8; for passive permeability (transcellular passive diffusion): 5 µM, compared with digoxin; for P-gp substrate assessment: Caco-2 monolayer model with zosuquidar
Experimental: Amounts being present after 4 h in the apical compartment are shown in % of the amount administered to the basal side.
In order to characterize compounds as substrates of P-gp, monolayers of Caco-2 cells were used in line with previous studies [53]. In brief, transport from the basolateral to apical compartment was determined after 4 h in the absence or presence of the P-gp inhibitor zosuquidar (Biomol GmbH, Hamburg, Germany). […] Zosuquidar was administered in a concentration of 1 µM to the basal and apical compartments. Results are expressed in % of the amount administered to the basolateral compartment at the beginning of the experiment. The P-gp substrate digoxin (obtained in tritium-labeled form from ARC, St. Louis, USA and in unlabeled form from Merck KGaA, Darmstadt, Germany) was used as positive control. Monolayer integrity was checked routinely using tritium-labeled inulin (obtained from ARC, St. Louis, USA). […] LC–MS analyses were performed using an ultra-high-performance liquid chromatography (UPLC) (Ultimate 3000, Thermo Fisher Scientific) coupled to a high-resolution mass spectrometer (QExactive Orbitrap Focus, Thermo Fisher Scientific). The analytical column was an Acquity UPLC BEH C18, 1.7 µm, 2.1 × 100 mm column (Waters GmbH) and 80% methanol with 0.1% formic acid was used as mobile phase during an isocratic elution for 5 min at a flow rate of 0.35 mL/min. For sample preparation, 200 µL cell culture supernatant were mixed with 600 µL methanol including 50 ng/mL clopidogrel-d3 as an internal standard. Samples were centrifuged, the solvent of 600 µL supernatant was evaporated to dryness and 100 µL mobile phase was used for reconstitution. The injection volume was 5 µL. All experiments were performed with eight biological replicates. Unpaired t-test was used for analyzing differences with p-values < 0.05 considered significant.

[4] = Partition coefficient logD7.4 (n-octanol/PBS); type: physicochemical; conditions: n-octanol/PBS pH 7.4, mean ± SD
Experimental: Phosphate-buffered saline (PBS, 480 µL, pH 7.4) and n-octanol (500 µL) were placed in an Eppendorf tube. The radioligand (30–50 kBq, [^18F]1c or [^18F]1f) in PBS (20 µL) was added to the tube, vortexed for 1 min and centrifuged (20,000g, 1 min). Three samples (100 µL) from each layer were collected and measured by a γ-counter (Wallac Wizard 1470, PerkinElmer, USA). After the average cpm values from the triplicate measurements of each layer were calculated, the logD7.4 was determined as the logarithm of the ratio of n-octanol (mean cpm) to PBS (mean cpm). The mean logD7.4 value ± standard deviation was determined by at least three independent experiments each performed in triplicates.

[5] = Plasma protein binding (MicroSpin G-50 columns); type: in vitro ADME; conditions: human plasma, 37 °C, read-out: plasma protein binding (PPB) (converted)
Experimental: The radiotracer (100–200 kBq, [^18F]1c or [^18F]1f) in PBS (2 µL) was incubated with human plasma (100 µL) at 37 °C for 10 min. After preconditioning of the microcolumns according to the instructions of the manufacturer (illustra MicroSpin G-50 columns from GE Healthcare), a sample (40 µL) of was applied to the resin. The microspin tubes were centrifuged (2000g, 2 min) and both, eluate and resin were measured by a γ-counter (Wallac Wizard 1470, PerkinElmer, USA). The PPB was calculated as percentage of bound ligand (cpm of resin) from the total amount of radioactivity (sum of cpm of resin and eluate). Samples from incubation of the radiotracer in saline instead of plasma served as negative control. The mean PPB value was determined from at least two independent experiments each performed in triplicate.

[6] = Radioligand stability in human plasma and human serum; type: in vitro ADME; conditions: 37 °C, up to 120 min, radio-HPLC
Experimental: (§2) The radioligand (1–2 MBq, [^18F]1c or [^18F]1f) in PBS (20 µL) was incubated with human serum, human plasma or rat plasma (400 µL) at 37 °C. Samples (50 µL) were taken at 5, 10, 15, 30, 60 and 120 min, mixed with aqueous TFA (10%, 50 µL) and centrifuged (20,000g, 2 min). The supernatant (20 µL) was analyzed by radio-HPLC.

[7] = Radioligand stability in rat plasma; type: in vitro ADME; conditions: 37 °C, up to 120 min, radio-HPLC
Experimental: as §2

[8] = Dynamic small animal PET imaging of the rat brain; type: in vivo
Experimental: Small animal PET experiments in rats were performed to allow for an initial comparison in single animals that were injected with [^18F]1c or [^18F[1f alone, after preinjection of suvorexant (1 mg/kg), and after pretreatment with cyclosporine A (25 mg/kg) (Fig. 3). […] Therefore, to elucidate the P-gp-mediated transport of the compounds, specific experiments were performed.
Fig. 3 Time-activity curves and horizontal PET slices of the rat brain after injection of [^18F]1c (A, C) and [^18F]1f (B, D). Single animals were injected with the tracer alone (“control”, blue) compared to animals preinjected with suvorexant (1 mg/kg, 15 min prior to tracer injection, each n = 1; “blocking”, red) or cyclosporine A (25 mg/kg, 30 min prior to tracer injection, each n = 1; green)
Ten- to 13-week-old female CD Sprague–Dawley rats (250–300 g, Charles River) were housed with free access to standard rat chow (Purina) and water at all times. Dynamic small animal PET scans were performed on an Inveon™ microPET scanner (Siemens Healthineers AG, Erlangen, Germany). All rats were continuously anesthetized using isoflurane (2–3% in oxygen, 0.8 L/min) and placed on a heating pad (37 °C) during the PET scan. Rats were injected intravenously in the tail vein with the radioligand in saline (5–15 MBq in 200–300 µL, [^18F]1c or [^18F]1f). Pretreatment with suvorexant (1 mg/kg, 15 min prior to tracer injection) or cyclosporine A (25 mg/kg, […] to tracer injection) was done intravenously. Dynamic PET scans were acquired from 0 to 60 min p.i. and consisted of 23 frames with increasing duration (12 × 10 s, 3 × 1 min, 5 × 5 min and 3 × 10 min). Subsequently, an attenuation scan with a rotating Co-57 point source was performed. The obtained dynamic emission images were subjected to an attenuation and decay correction. After the iterative maximum a posteriori (MAP) estimation for the image reconstruction, regions of interest (ROIs) were drawn for the whole brain. Computational processing of the PET scans was done with the software PMOD (PMOD Technologies LLC). The data obtained were finally converted into values expressed as percent of injected dose per gram (%ID/g).

P-gp, sequence (P08183 whole entry, the tested form may be a part): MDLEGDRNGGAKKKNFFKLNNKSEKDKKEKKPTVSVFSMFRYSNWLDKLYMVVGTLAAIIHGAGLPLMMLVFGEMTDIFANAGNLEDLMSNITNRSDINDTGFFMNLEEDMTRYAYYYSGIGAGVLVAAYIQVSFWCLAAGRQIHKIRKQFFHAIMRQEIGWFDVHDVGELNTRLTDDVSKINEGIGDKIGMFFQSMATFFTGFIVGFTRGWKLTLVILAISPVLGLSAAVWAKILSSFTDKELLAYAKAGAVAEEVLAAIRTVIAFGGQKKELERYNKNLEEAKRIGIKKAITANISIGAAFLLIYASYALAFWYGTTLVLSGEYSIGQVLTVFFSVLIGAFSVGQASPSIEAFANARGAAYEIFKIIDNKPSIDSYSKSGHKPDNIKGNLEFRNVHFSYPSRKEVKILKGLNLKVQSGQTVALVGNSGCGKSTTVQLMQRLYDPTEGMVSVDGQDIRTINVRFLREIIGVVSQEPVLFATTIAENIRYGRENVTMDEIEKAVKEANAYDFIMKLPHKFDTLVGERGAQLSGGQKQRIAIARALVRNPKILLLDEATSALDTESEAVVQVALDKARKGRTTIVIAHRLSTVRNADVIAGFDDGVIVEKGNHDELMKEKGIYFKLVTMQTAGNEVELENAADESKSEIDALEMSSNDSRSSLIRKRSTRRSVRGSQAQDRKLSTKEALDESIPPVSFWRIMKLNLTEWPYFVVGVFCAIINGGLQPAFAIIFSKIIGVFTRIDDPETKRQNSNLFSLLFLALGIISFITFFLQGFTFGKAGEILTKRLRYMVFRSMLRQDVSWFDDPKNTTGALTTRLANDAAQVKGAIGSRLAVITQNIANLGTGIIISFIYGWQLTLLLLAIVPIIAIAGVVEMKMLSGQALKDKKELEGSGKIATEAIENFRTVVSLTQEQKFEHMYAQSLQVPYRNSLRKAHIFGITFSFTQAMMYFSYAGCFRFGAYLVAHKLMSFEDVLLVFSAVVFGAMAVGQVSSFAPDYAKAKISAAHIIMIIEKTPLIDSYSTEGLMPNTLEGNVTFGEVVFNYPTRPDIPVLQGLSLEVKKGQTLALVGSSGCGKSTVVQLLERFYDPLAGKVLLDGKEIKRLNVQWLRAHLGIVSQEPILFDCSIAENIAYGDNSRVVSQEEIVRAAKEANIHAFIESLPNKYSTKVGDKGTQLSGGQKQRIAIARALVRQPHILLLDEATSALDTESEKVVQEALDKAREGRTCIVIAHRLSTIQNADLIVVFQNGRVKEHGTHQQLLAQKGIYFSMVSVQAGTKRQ

| Structure (SMILES) | OX1R selectivity Ki(hOX2R)/Ki(hOX1R) [1] | Ki [1] | Ki [2] | effect of P-gp inhibitor zosuquidar (ZSQ) on basolateral-to-apical transport [3] | passive permeability (transcellular passive diffusion) [3] | other results |
| --- | --- | --- | --- | --- | --- | --- |
| Cc1ccc(-n2nccn2)c(C(=O)N2CCCN(c3nc4cc(F)ccc4o3)CC2)c1 [1a] | 1.0 | 2.5 ± 0.62 nM | 2.5 ± 0.36 nM | – | – | – |
| Cc1ccc(-n2nccn2)c(C(=O)N2CCCN(c3nc4cc(F)ccc4s3)CC2)c1 [1b] | 1.3 | 1.9 ± 0.42 nM | 2.4 ± 0.49 nM | did not significantly reduce | greater than that of digoxin | – |
| Cc1ccc(-n2nccn2)c(C(=O)N2CCCN(c3nc4ccc(F)cc4s3)CC2)c1 [1c] | 1.2 | 0.99 ± 0.25 nM | 1.2 ± 0.2 nM | only moderately inhibited; also recorded: very modest, yet significant, effect | greater than that of digoxin | P-gp substrate assessment [3]: not efficient P-gp substrates |
| Cc1ccc(-n2nccn2)c(C(=O)N2CCCN(c3cnc4cc(F)ccc4n3)CC2)c1 [1d] | 0.7 | 1.2 ± 0.4 nM | 0.8 nM and 0.83 nM | did not significantly reduce | greater than that of digoxin | – |
| CC[C@H](C)[C@H]1CN(c2nc3cc(F)ccc3o2)CCCN1C(=O)c1cc(C)ccc1-n1nccn1 [1e] | 77 | 1.2 ± 0.28 nM | 92 ± 14 nM | – | – | decrease of OX1R affinity compared to JH112 (factor) ([1]; fluorine for chlorine replacement): 1.6 |
| CC[C@H](C)[C@H]1CN(c2nc3ccc(F)cc3s2)CCCN1C(=O)c1cc(C)ccc1-n1nccn1 [1f] | 77 | 0.69 ± 0.26 nM | 53 ± 7.8 nM | no effect; also recorded: did not significantly reduce | similarly high as with digoxin | P-gp substrate assessment [3]: not efficient P-gp substrates |
| Cc1ccc(-n2nccn2)c(C(=O)N2CCCN(c3nc4ccc([18F])cc4s3)CC2)c1 [[^18F]1c, [4-(6-[^18F]fluorobenzo[d]thiazol-2-yl)-1,4-diazepan-1-yl][5-methyl-2-(2H-1,2,3-triazol-2-yl)phenyl]methanone] | – | – | – | – | – | logD [4]: 2.28; fraction unbound at 10 min [5]: 0.34; stability in human plasma [6]: stable over 120 min; stability in human serum [6]: stable over 120 min; stability in rat plasma [7]: stable over 120 min; brain uptake after pretreatment with cyclosporine A ([8]; cyclosporine A 25 mg/kg i.v. prior to tracer, n = 1): 0.25 %ID/g; brain uptake after preinjection of suvorexant ([8]; suvorexant 1 mg/kg i.v. 15 min prior to tracer, n = 1): 0.25 %ID/g; time of maximum brain uptake p.i. ([8]; tracer alone i.v.): about 40 s; maximum brain uptake ([8]; tracer alone i.v., whole brain, n = 1): 0.17 %ID/g |
